Source: patent US12589143B2, “Human anti-PD-L1 peptide vaccines and methods of their use” (priority 2019, dated 2026)
Where “and” joins values, the source holds several entries; their conditions need not be identical. Equal values may be shown once. Where no end group is shown, it is not given here.

System: MVF-PD-L1 peptide immunogen
Assay: Immunogenicity in Balb/c mice, experiment 1 (CT26 WT): ELISA of sera vs each MVF-PD-L1 peptide immunogen
Assay type: in vivo
Conditions: for Immunogenicity (titers) 1′ Conc. 1:: Balb/c mice
Procedure: Immunogenicity of MVF-PD-L1 B-cell epitopes. New Zealand White rabbits were immunized with 1 mg of each MVF-peptide immunogens dissolved in dd H2O emulsified (1:1) in Montanide ISA 720 vehicle (Seppic) with 333 μg of N-acetylglucosamine-3yl-acetyl-1-alanyl-d-isoglutamine (nor-MDP). Rabbits were boosted with the same doses at 3-week's intervals. Blood was collected via the central auricular artery in rabbits. Blood was collected weekly (1Y+3, 2Y+1, 2Y+2,2Y+3, 3Y+1, 3Y+2 and sera tested for antibody titers by ELISA using the immunogens MVF-PD-L1 peptides. Sera (terminal) from rabbit (3Y+3) immunized with MVF-PD-1 peptide immunogens were tested individually versus the immunogen by ELISA. 200 ng/well peptide were used in duplicates to coat the ELISA plates. Titers are defined as the highest dilution of sera with an absorbance value of 0.2 after subtracting the blank.
FIGS. 5A, 5B, 5C, and 5D show the experimental scheme to test the immunization with PD-L1 in Balb/c mice. […] Balb/c mice 6-8 weeks old, were immunized with MVF-peptide immunogens emulsified in ISA 720 with nor-MDP three times and three weeks apart. Mice were immunized with MVF-PD-L1 vaccine constructs [PD-L1(36-53), PD-L1(50-67), PD-L1(95-112), PD-L1(130-147)] prior to tumor challenge. Blood was collected weekly and sera tested for antibody titers by ELISA. Two weeks after the third immunization (3Y), the mice were engrafted with CT26 WT tumor cells 10^5 per mouse Control mice were treated twice weekly with PBS as negative control and twice weekly with anti-mPD-L1 mAb (10F.9G2) as positive control starting 2 days after tumor challenge. Tumor growths were observed twice weekly and measured by calipers.
Immunogenicity of MVF-PD-L1 peptides in BALB/c mice immunized with various peptide constructs. Sera collected weekly were tittered against each individual MVF-PD-L1 peptide immunogen. The Pink bar refers to titers versus PD-L1 130 and the red bar refers to titers versus PD-1 (92-110).
In order to verify the efficacy of the PD-L1 epitope vaccines in vivo in the CT26 carcinoma cell line, Balb/c mice (10 mice/group) were immunized with 100 μg each of MVF-PD-L1 (36-53), MVF-PD-L1 (50-67), MVF-PD-L1 (95-112) and MVF-PD-L1 (130-147) emulsified with nor-MDP and Montanide 720 (1:1 ratio) SCHEME 1A (FIG. 5A). As detailed in SCHEME 1A-D (FIGS. 5A, 5B, 5C, and 5D), mice were immunized 3 times at 3 weeks intervals. […] All PD-L1 epitopes elicited high titers of PD-L1 anti-peptide antibodies by ELISA. […] We also investigated the combination of PD-1(92-110) with PD-L1-130-147.
For each peptide, vaccine antibodies were raised in New Zealand white rabbits, purchased from Charles River Laboratories (Wilmington, MA, USA). Rabbits were immunized with 1 mg of MVF chimeric peptide emulsified in Montanide ISA 720 (Seppic, Paris, France) and boosted 3 times at three week intervals. For mouse experiments, mice, 6-8 weeks old, were immunized with 0.1 mg of peptide emulsified in ISA720 (1:1 ratio). Mice were boosted with the respective doses at 3-week intervals. Blood was then collected and sera were tested for antibody titers. Sera were collected weekly and peptide vaccine antibodies were purified by affinity chromatography using a protein A/G column and the concentration was measured using Spectrophometer. All experiments were performed in accordance with the U.S. Public Health Service Policy on Humane Care and Use of Laboratory animals and approved by the Ohio State University Institutional Animals Care and Use Committee, detailed in the accepted protocol.
6-8 weeks old BALB/c mice (Charles River, Wilmington, MA) were used as standard animal models. Mouse CT26 colon carcinoma cell line was purchased from American Type Culture Collection Cells and were regularly cultured in RPMI1640 medium containing 10% FBS. CT26/HER2 cells were kindly provided by M. Penichet. Vaccines were dissolved in sterile water and emulsified in Montanide ISA 720 (1:1). […]

KLLSLIKGVIVHRLEGVEGPSLFVHGEEDLKVQHSSYRQR (KLLSLIKGVIVHRLEGVEGPSLFVHGEEDLKVQHSSYRQR-NH2) [PD-L1(50)]
Immunogenicity (titers) 1′ Conc. 1: (bleed 1Y + 3): 6400
Immunogenicity (titers) 1′ Conc. 1: (bleed 2Y + 1): 12800
Immunogenicity (titers) 1′ Conc. 1: (bleed 2Y + 2): 12800
Immunogenicity (titers) 1′ Conc. 1: (bleed 2Y + 3): 12800
Immunogenicity (titers) 1′ Conc. 1: (bleed 3Y + 1): 128000
Immunogenicity (titers) 1′ Conc. 1: (bleed 3Y + 2): 128000
Immunogenicity (titers) 1′ Conc. 1: (bleed 3Y + 3): 128000
ELISA absorbance of sera (bleed 1Y + 3 (1to100), dilution 100, bleed 1Y + 3): 1.459 and 1.424
ELISA absorbance of sera (bleed 1Y + 3 (1to100), dilution 200, bleed 1Y + 3): 1.338 and 1.282
ELISA absorbance of sera (bleed 1Y + 3 (1to100), dilution 400, bleed 1Y + 3): 1.131 and 1.099
ELISA absorbance of sera (bleed 1Y + 3 (1to100), dilution 800, bleed 1Y + 3): 0.878 and 0.852
ELISA absorbance of sera (bleed 1Y + 3 (1to100), dilution 1,600, bleed 1Y + 3): 0.639 and 0.588
ELISA absorbance of sera (bleed 1Y + 3 (1to100), dilution 3,200, bleed 1Y + 3): 0.398 and 0.365
ELISA absorbance of sera (bleed 1Y + 3 (1to100), dilution 6,400, bleed 1Y + 3): 0.239 and 0.213
ELISA absorbance of sera (bleed 1Y + 3 (1to100), dilution 12,800, bleed 1Y + 3): 0.143 and 0.129
ELISA absorbance of sera (bleed 2Y + 1 (1to100), dilution 100, bleed 2Y + 1): 1.243 and 1.292
ELISA absorbance of sera (bleed 2Y + 1 (1to100), dilution 200, bleed 2Y + 1): 1.279 and 1.274
ELISA absorbance of sera (bleed 2Y + 1 (1to100), dilution 400, bleed 2Y + 1): 1.241 and 1.170
ELISA absorbance of sera (bleed 2Y + 1 (1to100), dilution 800, bleed 2Y + 1): 1.127 and 1.002
ELISA absorbance of sera (bleed 2Y + 1 (1to100), dilution 1,600, bleed 2Y + 1): 0.923 and 0.887
ELISA absorbance of sera (bleed 2Y + 1 (1to100), dilution 3,200, bleed 2Y + 1): 0.721 and 0.666
ELISA absorbance of sera (bleed 2Y + 1 (1to100), dilution 6,400, bleed 2Y + 1): 0.480 and 0.471
ELISA absorbance of sera (bleed 2Y + 1 (1to100), dilution 12,800, bleed 2Y + 1): 0.332 and 0.274
ELISA absorbance of sera (bleed 2Y + 2 (1to100), dilution 100): 1.298 and 1.343
ELISA absorbance of sera (bleed 2Y + 2 (1to100), dilution 200): 1.310 and 1.286
ELISA absorbance of sera (bleed 2Y + 2 (1to100), dilution 400): 1.241 and 1.190
ELISA absorbance of sera (bleed 2Y + 2 (1to100), dilution 800): 1.144 and 1.093
ELISA absorbance of sera (bleed 2Y + 2 (1to100), dilution 1,600): 0.964 and 0.893
ELISA absorbance of sera (bleed 2Y + 2 (1to100), dilution 3,200): 0.741 and 0.670
ELISA absorbance of sera (bleed 2Y + 2 (1to100), dilution 6,400): 0.519 and 0.487
ELISA absorbance of sera (bleed 2Y + 3 (1to1k), dilution 100): 1.054 and 1.076
ELISA absorbance of sera (bleed 2Y + 3 (1to1k), dilution 200): 1.008 and 1.012
ELISA absorbance of sera (bleed 2Y + 3 (1to1k), dilution 400): 0.952 and 0.915
ELISA absorbance of sera (bleed 2Y + 3 (1to1k), dilution 800): 0.827 and 0.819
ELISA absorbance of sera (bleed 2Y + 3 (1to1k), dilution 1,600): 0.708 and 0.703
ELISA absorbance of sera (bleed 2Y + 3 (1to1k), dilution 3,200): 0.534 and 0.514
ELISA absorbance of sera (bleed 2Y + 3 (1to1k), dilution 6,400): 0.351 and 0.332
ELISA absorbance of sera (bleed 3Y + 1 (1to1k), dilution 100, bleed 3Y + 1): 1.191 and 1.215
ELISA absorbance of sera (bleed 3Y + 1 (1to1k), dilution 200, bleed 3Y + 1): 1.138 and 1.143
ELISA absorbance of sera (bleed 3Y + 1 (1to1k), dilution 400, bleed 3Y + 1): 1.076 and 1.034
ELISA absorbance of sera (bleed 3Y + 1 (1to1k), dilution 800, bleed 3Y + 1): 0.935 and 0.925
ELISA absorbance of sera (bleed 3Y + 1 (1to1k), dilution 1,600, bleed 3Y + 1): 0.800 and 0.794
ELISA absorbance of sera (bleed 3Y + 1 (1to1k), dilution 3,200, bleed 3Y + 1): 0.603 and 0.581
ELISA absorbance of sera (bleed 3Y + 1 (1to1k), dilution 6,400, bleed 3Y + 1): 0.397 and 0.375
ELISA absorbance of sera (bleed 3Y + 2 (1to1k), dilution 100, bleed 3Y + 2): 1.608 and 1.586
ELISA absorbance of sera (bleed 3Y + 2 (1to1k), dilution 200, bleed 3Y + 2): 1.503 and 1.479
ELISA absorbance of sera (bleed 3Y + 2 (1to1k), dilution 400, bleed 3Y + 2): 1.384 and 1.401
ELISA absorbance of sera (bleed 3Y + 2 (1to1k), dilution 800, bleed 3Y + 2): 1.185 and 1.213
ELISA absorbance of sera (bleed 3Y + 2 (1to1k), dilution 1,600, bleed 3Y + 2): 0.961 and 0.959
ELISA absorbance of sera (bleed 3Y + 2 (1to1k), dilution 3,200, bleed 3Y + 2): 0.684 and 0.694
ELISA absorbance of sera (bleed 3Y + 2 (1to1k), dilution 6,400, bleed 3Y + 2): 0.462
ELISA absorbance of sera (bleed 3Y + 3 (1to1k), dilution 100, bleed 3Y + 3): 1.740 and 1.779
ELISA absorbance of sera (bleed 3Y + 3 (1to1k), dilution 200, bleed 3Y + 3): 1.596 and 1.638
ELISA absorbance of sera (bleed 3Y + 3 (1to1k), dilution 400, bleed 3Y + 3): 1.445 and 1.469
ELISA absorbance of sera (bleed 3Y + 3 (1to1k), dilution 800, bleed 3Y + 3): 1.181 and 1.217
ELISA absorbance of sera (bleed 3Y + 3 (1to1k), dilution 1,600, bleed 3Y + 3): 0.867 and 0.967
ELISA absorbance of sera (bleed 3Y + 3 (1to1k), dilution 3,200, bleed 3Y + 3): 0.621 and 0.629
ELISA absorbance of sera (bleed 3Y + 3 (1to1k), dilution 6,400, bleed 3Y + 3): 0.359
